{
  "source": "paper PMC11714206",
  "about": "“Massively Parallel Screening of Toll/Interleukin‐1 Receptor (TIR)‐Derived Peptides Reveals Multiple Toll‐Like Receptors (TLRs)‐Targeting Immunomodulatory Peptides” (Advanced Science, 2024)",
  "key": {"[1]": {"design": "method as in PMID 19661804", "conditions": "possibly due to late administration; cited from earlier work", "source_text": "(§1) Treatment of macrophage cells with synthetic TDIPs containing a cell‐penetrating moiety suppressed TLR4‐dependent inflammatory pathways in a dose‐dependent manner. Moreover, the selected TDIPs exerted broad‐spectrum TLR‐inhibitory effects by inhibiting interactions between TIR domain‐containing proteins, which enhanced the therapeutic efficacy in the murine sepsis model. Although we applied TDIP simultaneously with LPS, the timing of TLR inhibitor administration remains a critical consideration. ..."}, "[2]": {"system": "polymicrobial sepsis model", "design": "method as in PMID 18305095", "conditions": "administration 3 h before or 6 h after CLP surgery; cited from earlier work", "source_text": "as §1"}, "Serum stability analysis": {"assay": "Serum stability analysis", "type": "in vitro ADME", "conditions": "human serum (Sigma H4522), 1 mM peptide in water mixed 1:1 (v/v) with serum, 37 °C, SDS‐PAGE, Coomassie band intensity (ImageJ); for half-life at 0.5 mM: 0–72 h", "protocol": "(§2) Figure 6 Molecular characterization of TDIPs. (a) Co‐immunoprecipitation of TIR domains and TDIPs. Lysates of HEK293T cells expressing FLAG‐tagged TIR domains were incubated with the indicated TDIPs. Peptides were blotted with an antibody against the penetratin sequence. Created with BioRender.com. (b) Fluorescence polarization binding assay of the Cy5‐labeled TDIP1 against TIR domains of Myd88, TRAM, and MAL. Error bars represent ± SD (n = 3). (c) Human serum stability (half‐life) of the TDIPs was measured. The percentage of the remaining peptide was quantified up to 72 h. (d) The secondary structure of the selected TDIPs was determined by circular dichroism. […] (e) TDIP1 and its truncates were compared for inhibition of TLR4 signaling by using HEK‐Blue^TM hTLR4 cells. Data are presented as mean ± SD. ^****p < 0.0001. All significance is versus the LPS‐treated CP group. n.s., not significant.\nThe first step of the serum stability analysis was performed as previously described^[ [60] ^] with a minor modification. Human serum (Sigma‐Aldrich, H4522) was thawed on ice and centrifuged at 18 000 × g for 10 min at 4 °C to remove lipids. The supernatant was incubated at 37 °C for 15 min to activate the proteins. Each peptide was prepared at a concentration of 1 mM in ultrapure water and mixed with human serum in a 1:1 (v/v) ratio. The mixed solutions were incubated at 37 °C for various periods (0, 1, 3, 6, 12, 24, 48, and 72 h). A mixture of ultrapure water and human serum was used as the blank. A total of 3 µg of the peptide was loaded on an SDS–polyacrylamide gel and stained with InstantBlue Coomassie Protein Stain (Abcam). The intensity of the remaining peptide bands was quantified using ImageJ and plotted."}, "TIR domain of MAL": {"biological_target": "T1, TIR domain of MAL (Homo sapiens, UniProt P58753)", "T1 construct": "MAL (residues 79–221); 6xHis; made in house; host or cells: E. coli BL21 (DE3)", "T1 sequence (P58753 79-221)": "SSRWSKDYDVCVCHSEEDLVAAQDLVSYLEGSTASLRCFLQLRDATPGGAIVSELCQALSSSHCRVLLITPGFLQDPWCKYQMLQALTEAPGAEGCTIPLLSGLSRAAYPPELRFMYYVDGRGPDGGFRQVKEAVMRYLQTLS", "assay": "Fluorescence polarization (FP) assay, MAL TIR", "type": "binding", "conditions": "Cy5‐labeled TDIP1 50 nM, TIR domain diluted 1:1 from 40 µM, 30 min RT, ± SD, n = 3, read-out: apparent Kd against MAL", "protocol": "as §2\n(§3) Fluorescence polarization assays were carried out using a 384‐well black non‐binding microplate (Corning, CLS4514). TDIP1 peptide was synthesized by ANYGEN with N‐terminal Cy5 at >95% purity. The lyophilized peptide was reconstituted in ultrapure water (Invitrogen) to a concentration of 1 mM. The peptide was diluted with 10× PBS to make a final solution of 100 nM. […] After mixing the samples, the plate was incubated for 30 min at RT and read using an Infinite M1000 (Tecan, Mannedorf, Switzerland)."}, "TIR domain of TRAM": {"biological_target": "T2, TIR domain of TRAM (Homo sapiens, UniProt Q86XR7)", "T2 construct": "purified TIR domains of MyD88, TRAM, and MAL", "T2 sequence (Q86XR7 73-229 limits assumed)": "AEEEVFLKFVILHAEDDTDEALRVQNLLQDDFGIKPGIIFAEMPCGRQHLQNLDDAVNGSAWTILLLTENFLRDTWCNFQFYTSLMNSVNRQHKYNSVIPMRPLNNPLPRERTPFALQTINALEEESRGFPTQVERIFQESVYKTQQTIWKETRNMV", "assay": "Fluorescence polarization (FP) assay, TRAM TIR", "type": "binding", "conditions": "Cy5‐labeled TDIP1 50 nM, TIR domain diluted 1:1 from 40 µM, 30 min RT, ± SD, n = 3, read-out: apparent Kd against TRAM", "protocol": "as §2, §3"}, "TIR domain of MyD88": {"biological_target": "T3, TIR domain of MyD88 (Homo sapiens, UniProt Q99836)", "T3 construct": "MyD88 (residues 148–296); 6xHis; made in house; host or cells: E. coli BL21 (DE3)", "T3 sequence (Q99836 148-296)": "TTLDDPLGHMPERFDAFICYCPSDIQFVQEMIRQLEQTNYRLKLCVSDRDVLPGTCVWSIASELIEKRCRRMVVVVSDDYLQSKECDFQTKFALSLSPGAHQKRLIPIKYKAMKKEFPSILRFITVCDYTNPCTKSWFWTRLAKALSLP", "assay": "Fluorescence polarization (FP) assay, MyD88 TIR", "type": "binding", "conditions": "Cy5‐labeled TDIP1 50 nM, TIR domain diluted 1:1 from 40 µM, 30 min RT, ± SD, n = 3, read-out: apparent Kd against MyD88", "protocol": "as §2, §3"}, "MyD88^TIR": {"biological_target": "T4, MyD88^TIR (Homo sapiens, UniProt Q99836)", "T4 construct": "MyD88 (residues 148–296); 6xHis; made in house; host or cells: E. coli BL21 (DE3)", "T4 sequence (Q99836 148-296)": "as above", "assay": "T‐Surf phage library (P8 and P3) selection against MyD88^TIR, four rounds, NGS read counts", "type": "binding", "conditions": "for P3_MyD88 Rank (after) / P3_MyD88 Rank (before): P3 library; for Population: P3_MyD88 pool: P3 T-Surf phage library, 4th round of selection against MyD88 TIR, share of NGS reads", "method_in_brief": "(§4)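 Library of 190 946 TIR‐derived peptides on P8 or P3 was panned on immobilized TIR domain coated at 5 µg mL^−1, BSA‐blocked, 1 h binding at RT, PBS/0.5% Tween‐20 washes, HCl elution, TG1 amplification. Fourth‐round pools were PCR‐barcoded, sequenced (100 bp paired‐end, Phred ≥30), and peptides ranked by read counts.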"}, "MAL^TIR": {"biological_target": "T5, MAL^TIR (Homo sapiens, UniProt P58753)", "T5 construct": "MAL (residues 79–221); 6xHis; made in house; host or cells: E. coli BL21 (DE3)", "T5 sequence (P58753 79-221)": "as the sequence (P58753 79-221) above", "assay": "T‐Surf phage library (P8 and P3) selection against MAL^TIR, four rounds, NGS read counts", "type": "binding", "conditions": "for P3_MAL Rank (after) / P3_MAL Rank (before): P3 library", "method_in_brief": "as §4"}, "[3]": {"system": "human conjunctival epithelial cells and rabbit cornea", "conditions": "cited from earlier work"}},
  "note": "Where no end group is shown, it is not given here.",
  "data": [
    {"compound": "CCCCCC/C=C\\CCCCCCCCCC(=O)N[C@H]1[C@H](OC[C@H]2O[C@H](OP(=O)(O)O)[C@H](NC(=O)CC(=O)CCCCCCCCCCC)[C@@H](OCCCCCCCCCC)[C@@H]2O)O[C@H](COC)[C@@H](OP(=O)(O)O)[C@@H]1OCC[C@@H](CCCCCCC)OC", "note": "[Eritoran tetrasodium]", "values": [
      {"measurement": "outcome in clinical trials", "setting": "[1]", "result": "failed in clinical trials"}
    ]},
    {"compound": "CCN(CC)CCCC(C)Nc1ccnc2cc(Cl)ccc12", "note": "(stereo not shown) [chloroquine]", "values": [
      {"measurement": "survival in polymicrobial sepsis model", "setting": "[2]", "result": "markedly improved survival"}
    ]},
    {"compound": "RQIKIWFQNRRMKWKKLFFWESLKQLLRSDGR [TDIP6]", "values": [
      {"measurement": "remaining peptide after 48 h of incubation in human serum", "setting": "Serum stability analysis", "result": "up to 50%"}
    ]},
    {"compound": "RQIKIWFQNRRMKWKKLVAHEISKKMKIFATI [TDIP20]", "values": [
      {"measurement": "half-life at 0.5 mM", "setting": "Serum stability analysis", "result": "< 1", "unit": "h"}
    ]},
    {"compound": "RQIKIWFQNRRMKWKKTFLGHLYNALVQAGIH [TDIP5]", "values": [
      {"measurement": "half-life at 0.5 mM", "setting": "Serum stability analysis", "result": "~6", "unit": "h"}
    ]},
    {"compound": "RQIKIWFQNRRMKWKKWFYERLVSLILRDTKV [TDIP1]", "values": [
      {"measurement": "Kd", "setting": "TIR domain of MAL", "result": "4.49 ± 0.72", "unit": "µM"},
      {"measurement": "Kd", "setting": "TIR domain of TRAM", "result": "1.46 ± 0.11", "unit": "µM"},
      {"measurement": "remaining peptide after 48 h of incubation in human serum", "setting": "Serum stability analysis", "result": "up to 50%"},
      {"measurement": "Kd", "setting": "TIR domain of MyD88", "result": "2.8 ± 0.46", "unit": "µM"}
    ]},
    {"compound": "YAFTGHLQRYLVHRGV", "values": [
      {"measurement": "Rank (after)", "setting": "MyD88^TIR; P3_MyD88: rank by count after grouping", "result": 120},
      {"measurement": "Rank (before)", "setting": "MyD88^TIR; P3_MyD88: rank by count before grouping", "result": 1532},
      {"measurement": "P3_MAL Rank (after)", "setting": "MAL^TIR; selection against MAL TIR, rank by count after grouping", "result": 251},
      {"measurement": "P3_MAL Rank (before)", "setting": "MAL^TIR; selection against MAL TIR, rank by count before grouping", "result": 1443}
    ]},
    {"compound": "YASSSWALDELLRILY", "values": [
      {"measurement": "P3_MyD88 Rank (after)", "setting": "MyD88^TIR; selection against MyD88, rank after grouping", "result": 502},
      {"measurement": "P3_MyD88 Rank (before)", "setting": "MyD88^TIR; selection against MyD88, rank before grouping", "result": 1556},
      {"measurement": "P8_MAL Rank (after)", "setting": "MAL^TIR; P8 library, selection against MAL TIR, rank by count after grouping", "result": 227},
      {"measurement": "P8_MAL Rank (before)", "setting": "MAL^TIR; P8 library, selection against MAL TIR, rank by count before grouping", "result": 799}
    ]},
    {"compound": "YLKWGDPYFWSKLRYAM", "values": [
      {"measurement": "Population", "setting": "MyD88^TIR", "result": 0.00466, "unit": "%"},
      {"measurement": "Rank (after)", "setting": "MAL^TIR; P3_MAL: rank by count after grouping", "result": 159},
      {"measurement": "Rank (before)", "setting": "MAL^TIR; P3_MAL: rank by count before grouping", "result": 519}
    ]},
    {"compound": "YLKWKEALHQFHSWV", "values": [
      {"measurement": "P3_MyD88 Rank (after)", "setting": "MyD88^TIR; 4R selection against MyD88, rank after grouping", "result": 601},
      {"measurement": "P3_MyD88 Rank (before)", "setting": "MyD88^TIR; 4R selection against MyD88, rank before grouping", "result": 1609},
      {"measurement": "P3_MAL Rank (after)", "setting": "MAL^TIR; 4R selection against MAL, rank after grouping", "result": 662},
      {"measurement": "P3_MAL Rank (before)", "setting": "MAL^TIR; 4R selection against MAL, rank before grouping", "result": 1520}
    ]},
    {"compound": "YTALTNSGFHTFRDND", "values": [
      {"measurement": "Population", "setting": "MyD88^TIR", "result": 0.00291, "unit": "%"},
      {"measurement": "Rank (after)", "setting": "MAL^TIR; P8_MAL: rank by count after grouping", "result": 105},
      {"measurement": "Rank (before)", "setting": "MAL^TIR; P8_MAL: rank by count before grouping", "result": 584}
    ]},
    {"compound": "YTALTNSGFHTFREM", "values": [
      {"measurement": "P3_MyD88 Rank (after)", "setting": "MyD88^TIR; selection against MyD88 TIR, rank by count after grouping", "result": 213},
      {"measurement": "P3_MyD88 Rank (before)", "setting": "MyD88^TIR; selection against MyD88 TIR, rank by count before grouping", "result": 1675},
      {"measurement": "P3_MAL Rank (after)", "setting": "MAL^TIR; selection against MAL, rank after grouping", "result": 500},
      {"measurement": "P3_MAL Rank (before)", "setting": "MAL^TIR; selection against MAL, rank before grouping", "result": 1548}
    ]},
    {"compound": "YTLLAICMMRCIVIV", "values": [
      {"measurement": "P3_MyD88 Rank (after)", "setting": "MyD88^TIR; selection against MyD88, rank by count after grouping", "result": 682},
      {"measurement": "P3_MyD88 Rank (before)", "setting": "MyD88^TIR; selection against MyD88, rank by count before grouping", "result": 1622},
      {"measurement": "P3_MAL Rank (after)", "setting": "MAL^TIR; selection against MAL, rank by count after grouping", "result": 751},
      {"measurement": "P3_MAL Rank (before)", "setting": "MAL^TIR; selection against MAL, rank by count before grouping", "result": 1535}
    ]},
    {"compound": "penetratin", "values": [
      {"measurement": "cellular and tissue toxicity compared with other CPPs such as TAT and polyarginine", "setting": "[3]", "result": "lower cellular and tissue toxicity"},
      {"measurement": "cellular uptake", "setting": "[3]", "result": "excellent cellular uptake"}
    ]}
  ]
}
